Assay: excess molar enthalpy (molar enthalpy of mixing); xn = mol fraction of the nth substance listed
Settings: 298.15 K, 100 kPa, Liquid, Isoperibol calorimetry

CCCOCC(C)O (stereo not given) [1-propoxy-2-propanol] + O
Settings	excess molar enthalpy [kcal/mol]
x1 = 0.00199	-0.012
x1 = 0.00509	-0.0263
x1 = 0.00988	-0.0454
x1 = 0.01524	-0.0693
x1 = 0.02082	-0.0765
x1 = 0.02573	-0.0884
x1 = 0.0299	-0.11
x1 = 0.03983	-0.12
x1 = 0.05248	-0.124
x1 = 0.09463	-0.141
x1 = 0.09856	-0.141
x1 = 0.1198	-0.146
x1 = 0.1284	-0.146
x1 = 0.1504	-0.148
x1 = 0.1711	-0.148
x1 = 0.2286	-0.148
x1 = 0.297	-0.141
x1 = 0.3791	-0.131
x1 = 0.4088	-0.129
x1 = 0.4372	-0.124
x1 = 0.494	-0.105
x1 = 0.5971	-0.0837
x1 = 0.6988	-0.0669
x1 = 0.7467	-0.0598
x1 = 0.8056	-0.0478
x1 = 0.8534	-0.0382
x1 = 0.8713	-0.0335
x1 = 0.9051	-0.0263
x1 = 0.9205	-0.0215
x1 = 0.9499	-0.0143
